The target of series [1] is T1, SENP7 (Homo sapiens, UniProt Q9BQF6).
T1 sequence (Q9BQF6 1-1050): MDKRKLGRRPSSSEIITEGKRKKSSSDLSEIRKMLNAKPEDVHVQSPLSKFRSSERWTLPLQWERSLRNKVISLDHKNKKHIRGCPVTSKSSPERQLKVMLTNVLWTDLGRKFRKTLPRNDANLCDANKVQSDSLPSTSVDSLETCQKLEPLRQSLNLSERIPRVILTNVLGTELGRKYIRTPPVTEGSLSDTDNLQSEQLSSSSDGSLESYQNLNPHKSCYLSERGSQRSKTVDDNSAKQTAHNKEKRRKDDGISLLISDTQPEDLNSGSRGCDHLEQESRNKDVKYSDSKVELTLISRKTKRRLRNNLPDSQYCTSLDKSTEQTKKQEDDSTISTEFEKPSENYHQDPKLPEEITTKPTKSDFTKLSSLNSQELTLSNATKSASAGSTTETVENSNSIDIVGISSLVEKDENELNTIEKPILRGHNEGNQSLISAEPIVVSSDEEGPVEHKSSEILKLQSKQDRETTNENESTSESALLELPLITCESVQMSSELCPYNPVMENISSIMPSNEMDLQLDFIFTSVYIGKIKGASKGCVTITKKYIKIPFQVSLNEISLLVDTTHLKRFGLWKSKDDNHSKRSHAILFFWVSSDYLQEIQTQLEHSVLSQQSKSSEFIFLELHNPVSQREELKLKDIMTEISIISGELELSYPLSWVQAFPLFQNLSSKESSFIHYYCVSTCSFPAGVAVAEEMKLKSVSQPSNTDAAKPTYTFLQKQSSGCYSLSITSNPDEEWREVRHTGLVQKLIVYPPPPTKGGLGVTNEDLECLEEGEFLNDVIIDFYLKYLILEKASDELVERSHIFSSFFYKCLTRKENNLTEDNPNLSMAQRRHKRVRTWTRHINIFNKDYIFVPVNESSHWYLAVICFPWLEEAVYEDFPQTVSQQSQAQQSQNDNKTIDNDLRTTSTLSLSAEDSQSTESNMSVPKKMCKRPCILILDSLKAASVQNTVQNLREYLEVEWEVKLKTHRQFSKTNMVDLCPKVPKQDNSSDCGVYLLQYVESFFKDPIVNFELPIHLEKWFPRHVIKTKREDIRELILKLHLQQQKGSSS
Conditions: 2 screens; 5.0 μM or 12. μM; cited from earlier work.

Series [2] concerns the target T2, SENP6 (Homo sapiens, UniProt Q9GZR1).
T2 sequence (Q9GZR1 1-1112): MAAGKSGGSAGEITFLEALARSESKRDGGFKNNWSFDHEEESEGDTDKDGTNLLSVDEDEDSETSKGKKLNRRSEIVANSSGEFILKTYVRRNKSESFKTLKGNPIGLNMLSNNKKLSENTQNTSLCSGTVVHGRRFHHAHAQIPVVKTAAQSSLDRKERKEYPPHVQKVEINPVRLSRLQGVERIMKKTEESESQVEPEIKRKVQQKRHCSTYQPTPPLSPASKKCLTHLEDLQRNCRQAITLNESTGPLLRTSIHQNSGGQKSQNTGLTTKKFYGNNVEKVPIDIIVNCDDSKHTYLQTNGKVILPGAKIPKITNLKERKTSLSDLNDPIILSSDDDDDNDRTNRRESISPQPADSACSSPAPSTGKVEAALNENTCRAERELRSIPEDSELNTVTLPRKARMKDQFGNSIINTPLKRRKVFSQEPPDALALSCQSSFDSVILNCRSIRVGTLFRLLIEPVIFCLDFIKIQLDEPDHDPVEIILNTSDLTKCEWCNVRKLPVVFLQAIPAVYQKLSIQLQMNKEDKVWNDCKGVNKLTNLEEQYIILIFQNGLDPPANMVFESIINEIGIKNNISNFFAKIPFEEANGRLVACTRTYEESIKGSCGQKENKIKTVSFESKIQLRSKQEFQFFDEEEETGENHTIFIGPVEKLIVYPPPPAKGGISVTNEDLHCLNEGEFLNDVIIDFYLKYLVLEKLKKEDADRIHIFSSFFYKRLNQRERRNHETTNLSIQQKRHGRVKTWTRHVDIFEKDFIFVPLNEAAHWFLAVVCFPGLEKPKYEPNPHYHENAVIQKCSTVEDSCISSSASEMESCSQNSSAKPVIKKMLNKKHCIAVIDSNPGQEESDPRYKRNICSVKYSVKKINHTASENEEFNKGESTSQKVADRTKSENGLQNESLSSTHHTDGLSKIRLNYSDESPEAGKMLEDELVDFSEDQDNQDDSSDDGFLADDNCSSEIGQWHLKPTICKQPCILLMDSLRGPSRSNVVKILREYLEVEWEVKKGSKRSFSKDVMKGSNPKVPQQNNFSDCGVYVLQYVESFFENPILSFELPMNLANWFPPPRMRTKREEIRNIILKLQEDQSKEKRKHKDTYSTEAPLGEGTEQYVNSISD
As to conditions: 2 screens; 10.0 μM or 12. μM; cited from earlier work.

In series [3] the test system is NFKBIA. Conditions: two screens; read-out: NFKBIA induction, EC50; cited from earlier work.
Series [4] concerns DNA. The series is described as follows: Comet assay (DNA damage). It is filed as cell-based. As to conditions: preliminary analysis.
In series [5] the test system is two breast cancer-derived tumor cell lines. The series is described as follows: Viability of breast cancer-derived tumor cell lines. Conditions: 5 μM. Format: cell-based.

“And” between values parts separate entries of the source, which are not always exact repeats. Identical values can stand only once.

Take `Cc1ccc(NC(=O)c2ccc([N+](=O)[O-])o2)cc1C` [Gr-1F]: the SENP7 inhibition in series [1] is around 90%. The SENP6 inhibition in series [2] is reported as around 80%.

By EC50 is commonly meant the concentration giving half of the maximal effect. With `O=[N+]([O-])c1ccccc1S(=O)(=O)Nc1cccc2cccnc12` [Gr-3A], the EC50 in series [3] is 11 µM and 12 µM. Regarding `Nc1ccccc1S(=O)(=O)Nc1cccc2cccnc12` [Gr-3C], in series [3], the EC50 was 8.5 µM and 11 µM. For `O=C(NCc1cccnc1)/C(=C\c1cccc(Oc2ccccc2)c1)S(=O)(=O)c1ccccc1` [Gr-7A], the “Fraction of damaged DNA with long comet tails” value in series [4] is “significantly increased the fraction of damaged DNA with long comet tails”.

Regarding `O=C(c1ccc([N+](=O)[O-])o1)N1CCc2ccccc21` [O13], the SENP6 inhibition in series [2] is around 50%. Regarding `[O-][n+]1onc2c3nsnc3c(Br)cc21` [O17], the “Cell viability in two breast cancer-derived tumor cell lines” value in series [5] was “significantly reduce cell viability”.
